{"source": "patent US20210283253A1", "about": "“COMPOSITIONS AND METHODS AGAINST P. AERUGINOSA INFECTIONS” (priority 2017, published 2021)", "molecules": {"B1": {"name": "Aerucin: anti-Pseudomonas aeruginosa MEP binding human monoclonal antibody; heavy chain variable SEQ ID NO: 5, light chain variable SEQ ID NO: 7 (antibody, listed as Homo sapiens, V domains shown)", "VH": "QLQLQESGPGLVKPTETLSLTCTVSGGPITYINYYWGWVRQPPGKGLEWIGSIHYDGSTFYNPSLKSRVTISGDTSKSEFSVKLSSVTAADTAVYYCARTYYDASGSPYFDHWGQGTLVTVSS", "VL": "QSVLTQPPSVSAAPGQKVSISCSGSSSNIGNNYVSWYQQLPGTAPNLLIYDNNKRPSGIPDRFSGSKSGTSATLDITGLQSGDEADYYCGTWDSSLSTWVFGGGTKLTVL"}}, "key": {"Pseudomonas aeruginosa [1]": {"test_system": "Pseudomonas aeruginosa", "experiment": "OPA with mAb/antibiotic combinations", "type": "cell-based", "conditions": "90 minutes", "procedure": "The assay is performed in 96-well microtiter plates with 1% BSA in MEM as the assay diluent. The Leukemia-derived human cell-line HL-60 is used as source of neutrophils. Differentiation of HL-60 cells into neutrophils is induced by addition of 100 mM Dimethylformamide (DMF). Neutrophil morphology is verified by expression of CD11b/Mac-1 marker using FACS. Neutrophils are washed, re-suspended in assay diluent, counted and diluted to a density of 2.5×10^7 cells/ml. Opsonization is mediated by Rabbit sera complement, diluted in assay diluent for a final dilution factor of 1:60. Freshly grown log-phase Pseudomonas strains are re-suspended and diluted in assay diluent to achieve a final ratio of neutrophils to bacteria of 20:1 to 40:1. Dilutions of Aerucin™ from 5 μg/ml to 100 ng/ml are prepared in assay diluent along with a commercial human IgG1 at 5 μg/ml as negative control. Other negative controls include assay mixtures with certain components (complements, neutrophils, antibodies) absent.\nEqual volumes (50 μl) of each component are added to assay wells in the order of: antibodies, complement, neutrophils then bacteria. The components are mixed using a multichannel pipette. Samples at time zero are taken, diluted and plated on agar plates for titer determination. Assay plates are then incubated at 37° C. with shaking for 90 minutes. Samples are again taken, diluted and plated on agar plates.\n(§1) Bacteria titers (CFU/ml) are determined for time-zero and 90-minute samples from colony counts on agar plates after overnight incubation at 37° C. Percent kills are calculated as the difference in titer at 90 minutes from time-zero, divided by the titer at time-zero: […].\nThe assay is performed as described above except that equal volumes (50 μl) of each component are added to assay wells in the order of: antibodies, antibiotic, complement, neutrophils, and then bacteria. Bacteria titers (CFU/ml) are measured directly after mixing all components and after 90 minutes incubation. The read-out of the assay (% kill) is how well the drug or combination of drugs can kill bacteria over these 90 minutes.\nAverages from three independent experiments are presented.\nMinimum inhibitory concentrations (MICs) of the antibiotics used in the OPA assays had been determined upfront (data not shown). […] Data for bactericidal antibiotics Cefepime and Piperacillin was generated with 1×MIC, for Aztreonam (bactericidal) with ½ MIC."}, "P. aeruginosa": {"test_system": "P. aeruginosa", "conditions": "cited from earlier work"}, "Pseudomonas aeruginosa [2]": {"test_system": "Pseudomonas aeruginosa", "experiment": "Opsonic phagocytosis assay (OPA) with Aerucin", "type": "cell-based", "source_text": "FIG. 3. […] The opsonic phagocytosis assay (OPA) measures potency of antibodies based on the ability to initiate and mediate destruction of their specific targets by neutrophils. The assay utilizes purified complement from goat, rabbit, guinea pig or human sera, and neutrophils either isolated from whole blood or from differentiation of parental cell lines. Various concentrations of the antibody of interest, along with controls, are mixed with antigens. Complement serum and neutrophils are then added at certain ratios. After incubation to allow phagocytosis to occur, fractions of remaining antigens are then quantified by plating (bacteria) on agar plates to enumerate bacterial colonies remaining from the titer that was used at the start of the assay reaction. […]\nThe assay is performed in 96-well microtiter plates with 1% BSA in MEM as the assay diluent. […] Neutrophils are washed, re-suspended in assay diluent, counted and diluted to a density of 2.5×10^7 cells/ml. […]\nas §1"}, "[3]": {"conditions": "4 μg/ml antibiotic alone (Cefepime 1× MIC, Aztreonam ½ MIC)"}}, "note": "Entries after “also recorded” stand apart in the source; their conditions may differ.", "data": [{"molecule": "C[C@H]1[C@H](NC(=O)/C(=N\\OC(C)(C)C(=O)O)c2csc(N)n2)C(=O)N1S(=O)(=O)O", "note": "[Aztreonam]", "values": [{"measurement": "% Kill", "setting": "Pseudomonas aeruginosa [1]; [3]", "value": 60, "unit": "%"}]}, {"molecule": "CO/N=C(\\C(=O)N[C@@H]1C(=O)N2C(C(=O)[O-])=C(C[N+]3(C)CCCC3)CS[C@H]12)c1csc(N)n1", "note": "[Cefepime]", "values": [{"measurement": "% Kill", "setting": "Pseudomonas aeruginosa [1]; [3]", "value": 40, "unit": "%"}]}, {"molecule": "O=C(O)c1cn(C2CC2)c2cc(N3CCNCC3)c(F)cc2c1=O", "note": "[Ciprofloxacin]", "values": [{"measurement": "% Kill", "setting": "Pseudomonas aeruginosa [1]; 0.5 μg/ml Ciprofloxacin alone (2× MIC)", "value": "does not show bacterial killing"}]}, {"molecule": "CCN1CCN(C(=O)N[C@@H](C(=O)N[C@@H]2C(=O)N3[C@@H]2SC(C)(C)[C@@H]3C(=O)O)c2ccccc2)C(=O)C1=O", "note": "[Piperacillin]", "values": [{"measurement": "% Kill", "setting": "Pseudomonas aeruginosa [1]; 8 μg/ml Piperacillin alone (1× MIC)", "value": "~40", "unit": "%"}]}, {"molecule": "Colistin", "values": [{"measurement": "% Kill", "setting": "Pseudomonas aeruginosa [1]; 2 μg/ml Colistin alone (2× MIC)", "value": "~20", "unit": "%"}]}, {"molecule": "Panobacumab: anti-P. aeruginosa serotype 011 lipopolysaccharide monoclonal antibody", "values": [{"measurement": "activity on a meropenem resistant P. aeruginosa strain", "setting": "P. aeruginosa; meropenem resistant strain", "value": "retained activity"}, {"measurement": "bacterial clearance from the lung", "setting": "P. aeruginosa; neutropenic host", "value": "enhanced bacterial clearance"}, {"measurement": "lung inflammation", "setting": "P. aeruginosa; neutropenic host", "value": "significantly reduced lung inflammation"}]}, {"molecule": "B1", "values": [{"measurement": "% Kill", "setting": "Pseudomonas aeruginosa [1]; 50 ng/ml Aerucin alone", "value": "around 5%"}, {"measurement": "opsonic phagocytosis: killing over negative controls", "setting": "Pseudomonas aeruginosa [2]; Aerucin 5 μg/ml to 100 ng/ml, rabbit complement, HL-60 neutrophils, 90 minutes", "value": "significant increase in killing over negative controls in a dose-dependent manner"}, {"measurement": "killing of P. aeruginosa in the absence of complement", "setting": "Pseudomonas aeruginosa [2]; OPA without complement, a number of Pa strains (Pa 2410, Pa 27853, Pa PGO2338)", "value": "killing of P. aeruginosa bacteria in the absence of complement; also recorded: killing was observed in the absence of complement"}]}]}
